In patent US11155557B2, “Pyrazolopyrimidine compounds and methods of use thereof” (Genentech, Inc., priority 2016, dated 2021):

Legend:
[1] = test system: JAK1-dependent STAT6 phosphorylation in BEAS-2B human bronchial epithelial cells; assay: JAK1 pathway assay: IL-13 stimulated STAT6 phosphorylation in BEAS-2B cells; format: cell-based; settings: Homo sapiens, BEAS-2B, BEAS-2B cells, IL-13 stimulation; read-out: IL-13 p-STAT6 BEAS-2B IC50
In short: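 BEAS-2B bronchial epithelial cells plated one day before, run in complete growth medium. Phospho-STAT6 in lysates measured by MesoScale Discovery; EC50 reported.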

[2] = target: isolated recombinant JAK1 kinase domain (Homo sapiens (Human), UniProt P23458); assay: JAK1 enzyme assay (Caliper LabChip, Ki); format: biochemical
Sequence of isolated recombinant JAK1 kinase domain (P23458 875-1153): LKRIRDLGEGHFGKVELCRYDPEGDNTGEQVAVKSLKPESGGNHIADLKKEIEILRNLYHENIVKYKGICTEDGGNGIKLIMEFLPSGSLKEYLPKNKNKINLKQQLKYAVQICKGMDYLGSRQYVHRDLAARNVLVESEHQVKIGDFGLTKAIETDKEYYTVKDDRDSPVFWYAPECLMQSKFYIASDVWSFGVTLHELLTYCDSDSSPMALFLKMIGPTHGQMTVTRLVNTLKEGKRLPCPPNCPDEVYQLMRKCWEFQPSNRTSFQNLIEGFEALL
Method: The activity of the isolated recombinant JAK1 and JAK2 kinase domain was measured by monitoring phosphorylation of a peptide derived from JAK3 ([…] fluorescently labeled on the N-terminus with 5-carboxyfluorescein) using the Caliper LabChip R technology (Caliper Life Sciences, Hopkinton, Mass.).

[3] = target: isolated recombinant JAK2 kinase domain (Homo sapiens (Human), UniProt O60674); assay: JAK2 enzyme assay (Caliper LabChip, Ki); settings: read-out: JAK2 Ki
Sequence of isolated recombinant JAK2 kinase domain (O60674 849-1124): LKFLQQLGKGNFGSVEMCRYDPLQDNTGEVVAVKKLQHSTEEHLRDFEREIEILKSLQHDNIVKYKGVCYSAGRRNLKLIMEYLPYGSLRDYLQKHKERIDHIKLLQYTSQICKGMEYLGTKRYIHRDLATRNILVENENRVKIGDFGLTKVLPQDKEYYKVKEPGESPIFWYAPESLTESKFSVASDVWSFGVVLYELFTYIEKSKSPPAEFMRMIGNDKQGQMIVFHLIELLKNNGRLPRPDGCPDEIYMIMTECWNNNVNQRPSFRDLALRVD

SMILES | IC50 [1] [nM] | Ki [2] [nM] | Ki [3] [nM]
C[C@H]1CNc2cc(OC(F)F)c(-c3n[nH]cc3NC(=O)c3cnn4cccnc34)cc2O1 [Example 148, (S)—N-(3-(6-(difluoromethoxy)-2-methyl-3,4-dihydro-2H-benzo[b][1,4]oxazin-7-yl)-1H-pyrazol-4-yl)pyrazolo[1,5-a]pyrimidine-3-carboxamide] | 55 | 0.51 | 0.17
Cn1cc(NC(=O)c2cnn3cccnc23)c(-c2cc3c(cc2OC(F)F)NCC(C)(C)O3)n1 [Example 149, N-(3-(6-(difluoromethoxy)-2,2-dimethyl-3,4-dihydro-2H-benzo[b][1,4]oxazin-7-yl)-1-methyl-1H-pyrazol-4-yl)pyrazolo[1,5-a]pyrimidine-3-carboxamide] | 43 | 1.33 | 0.64
O=C(Nc1c[nH]nc1-c1cc2c(cc1OC(F)F)OCCO2)c1cnn2cccnc12 [Example 150, N-(3-(7-(difluoromethoxy)-2,3-dihydrobenzo[b][1,4]dioxin-6-yl)-1H-pyrazol-4-yl)pyrazolo[1,5-a]pyrimidine-3-carboxamide] | 61 | 1.65 | 0.61
O=C(Nc1c[nH]nc1-c1cc2c(cc1OC(F)F)SCCO2)c1cnn2cccnc12 [Example 151, N-(3-(6-(difluoromethoxy)-2,3-dihydrobenzo[b][1,4]oxathiin-7-yl)-1H-pyrazol-4-yl)pyrazolo[1,5-a]pyrimidine-3-carboxamide] | 30 | 0.77 | 0.25
O=C(Nc1c[nH]nc1-c1cc2sncc2cc1OC(F)F)c1cnn2cccnc12 [Example 152, N-(3-(5-(difluoromethoxy)benzo[d]isothiazol-6-yl)-1H-pyrazol-4-yl)pyrazolo[1,5-a]pyrimidine-3-carboxamide] | 4 | 0.1 | 0.06
O=C(Nc1c[nH]nc1-c1cc2cnsc2cc1OC(F)F)c1cnn2cccnc12 [Example 153, N-(3-(6-(difluoromethoxy)benzo[d]isothiazol-5-yl)-1H-pyrazol-4-yl)pyrazolo[1,5-a]pyrimidine-3-carboxamide] | 5 | 0.15 | 0.08
CC(C)OC(=O)n1cc(NC(=O)c2cnn3cccnc23)c(-c2cc3c(cc2OC(F)F)NCCO3)n1 [Example 154, Propan-2-yl 3-[6-(difluoromethoxy)-3,4-dihydro-2H-1,4-benzoxazin-7-yl]-4-[pyrazolo[1,5-a]pyrimidine-3-amido]-1H-pyrazole-1-carboxylate] | 22 | 0.4 | 0.38
